Laboratory results taken from paper PMC7830743 (Journal of medicinal chemistry, 2020).
“Also recorded” adds a separate entry of the source.

Tests used:
[1] = biological target: LDHA (Homo sapiens, UniProt P00338); experiment: Biochemical LDHA inhibition assay
[2] = system: A673 cells; experiment: Cellular lactate production assay in A673 cells; format: cell-based, human; conditions: Homo sapiens, A673, 0.5 h, read-out: A673 cells lactate inh. IC50
[3] = system: A673 cells; experiment: Cytotoxicity assay in A673 cells; format: cell-based, human; conditions: Homo sapiens, A673, 48 h, read-out: A673 cells Cytotox. IC50
[4] = system: MiaPaCa-2 cells; experiment: Cellular lactate production assay in MiaPaCa-2 cells; format: cell-based; conditions: Homo sapiens, MIA PaCa-2, 0.5 h, read-out: MiaPaCa-2 cells lactate inh. IC50
[5] = system: MiaPaCa-2 cells; experiment: Cytotoxicity assay in MiaPaCa-2 cells; format: cell-based; conditions: Homo sapiens, MIA PaCa-2, 48 h, read-out: MiaPaCa-2 cells Cytotox. IC50
[6] = biological target: LDHA with C-terminal HiBiT fusion tag (Homo sapiens, UniProt P00338); experiment: SplitLuc CETSA; format: cell-based
[7] = Kinetic solubility assay; format: physicochemical; conditions: PBS buffer
[8] = RLM stability assay, single time point; conditions: single-point (15 min) measurement; >30 min is highest estimable
[9] = system: tumor LDH activity (A673 flank xenograft); experiment: In vivo LDHA activity in A673 xenograft tumor mouse model; conditions: single IV 50 mg/kg, A673 xenograft mice
[10] = Liver cytosolic stability; format: in vitro ADME, and rat; conditions: human, mouse, rat, liver cytosol
[11] = Metabolic stability in hepatocytes; format: in vitro ADME, and mouse; conditions: rat, dog, mouse
[12] = BBB-PAMPA permeability assay; format: in vitro ADME; conditions: pH 7.4
[13] = biological target: T1, CYP450 2C8 (Homo sapiens, UniProt P10632); experiment: CYP450 inhibition, 2C8; format: in vitro ADME
T1 sequence (P10632 1-490): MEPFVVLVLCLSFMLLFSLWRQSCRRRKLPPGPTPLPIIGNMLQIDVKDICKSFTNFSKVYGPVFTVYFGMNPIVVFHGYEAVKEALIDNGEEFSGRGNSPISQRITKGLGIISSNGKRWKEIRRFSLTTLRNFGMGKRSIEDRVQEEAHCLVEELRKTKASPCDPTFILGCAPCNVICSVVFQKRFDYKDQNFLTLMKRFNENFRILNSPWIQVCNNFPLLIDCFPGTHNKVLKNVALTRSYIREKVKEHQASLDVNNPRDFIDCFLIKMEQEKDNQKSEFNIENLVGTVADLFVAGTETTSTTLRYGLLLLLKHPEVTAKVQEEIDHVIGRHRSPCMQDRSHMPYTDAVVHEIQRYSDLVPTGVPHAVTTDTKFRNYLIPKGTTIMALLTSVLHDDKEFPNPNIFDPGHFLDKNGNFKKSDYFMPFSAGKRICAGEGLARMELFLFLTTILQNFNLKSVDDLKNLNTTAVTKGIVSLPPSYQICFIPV

[14] = biological target: T2, CYP450 2B6 (Homo sapiens, UniProt P20813); experiment: CYP450 inhibition, 2B6; format: in vitro ADME
T2 sequence (P20813 1-491): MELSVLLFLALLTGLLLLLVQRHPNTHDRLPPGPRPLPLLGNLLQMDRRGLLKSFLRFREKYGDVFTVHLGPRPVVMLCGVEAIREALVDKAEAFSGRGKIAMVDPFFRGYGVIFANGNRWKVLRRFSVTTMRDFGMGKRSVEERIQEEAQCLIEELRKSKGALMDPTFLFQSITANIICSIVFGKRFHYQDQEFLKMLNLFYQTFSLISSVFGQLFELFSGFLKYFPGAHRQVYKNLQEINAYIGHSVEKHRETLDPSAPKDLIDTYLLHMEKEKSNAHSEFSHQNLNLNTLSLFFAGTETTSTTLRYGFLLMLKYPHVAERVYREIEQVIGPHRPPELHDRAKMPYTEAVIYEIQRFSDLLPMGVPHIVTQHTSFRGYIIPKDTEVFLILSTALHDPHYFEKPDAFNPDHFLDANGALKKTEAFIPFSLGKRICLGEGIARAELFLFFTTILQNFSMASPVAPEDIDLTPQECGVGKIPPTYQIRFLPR

[15] = Metabolite ID; format: in vitro ADME; conditions: also in the presence of GSH
[16] = system: CYP; experiment: CYP induction; format: in vitro ADME; conditions: at 10 μM
[17] = Ames assay
[18] = Mouse pharmacokinetic studies; format: in vivo, CD1 mice; conditions: male, CD1, mouse, plasma, iv, 10 mg/kg

| Compound | aq solubility at pH 7.4 [7] | IC50 [1] | IC50 [2] | IC50 [3] | IC50 [4] | IC50 [5] | IC50 [6] | further results |
| --- | --- | --- | --- | --- | --- | --- | --- | --- |
| CC1(C#Cc2cc(-c3nn(-c4nc(C(=O)O)cs4)c(CC4CC4)c3Cc3ccc(S(N)(=O)=O)c(F)c3)ccc2F)COC1 [Compound 26, 2-(5-(Cyclopropylmethyl)-3-(4-fluoro-3-((3-methyloxetan-3-yl)-ethynyl)phenyl)-4-(3-fluoro-4-sulfamoylbenzyl)-1H-pyrazol-1-yl)-thiazole-4-carboxylic Acid] | significantly diminished | 10 nM | 1050 nM | 1180 nM | 898 nM | 1240 nM | 84 nM |  |
| CCCCC#Cc1cc(-c2nn(-c3nc(C(=O)O)cs3)c(CC3CC3)c2Cc2ccc(S(N)(=O)=O)c(F)c2)ccc1F [Compound 15, 2-(5-(Cyclopropylmethyl)-3-(4-fluoro-3-(hex-1-yn-1-yl)phenyl)-4-(3-fluoro-4-sulfamoylbenzyl)-1H-pyrazol-1-yl)thiazole-4-carboxylic Acid] |  |  |  |  |  |  |  | RLM stability T1/2 [8]: metabolized quickly |
| Cn1cncc1C#Cc1cc(-c2nn(-c3nc(C(=O)O)cs3)c(CC3CC3)c2Cc2ccc(S(N)(=O)=O)c(F)c2)ccc1F [Compound 48, 2-(5-(Cyclopropylmethyl)-3-(4-fluoro-3-((1-methyl-1H-imidazole-5-yl)ethynyl)phenyl)-4-(3-fluoro-4-sulfamoylbenzyl)-1H-pyrazol-1-yl)thiazole-4-carboxylic Acid] | significantly diminished |  |  |  |  |  |  |  |
| CCCC#Cc1cc(-c2nn(-c3nc(C(=O)O)cs3)c(CC3CC3)c2Cc2ccc(S(N)(=O)=O)c(F)c2)ccc1F [Compound 14, 2-(5-(Cyclopropylmethyl)-3-(4-fluoro-3-(pent-1-yn-1-yl)phenyl)-4-(3-fluoro-4-sulfamoylbenzyl)-1H-pyrazol-1-yl)thiazole-4-carboxylic Acid] |  |  |  |  |  |  |  | effect on LDH activity in tumors (in words) [9]: less effects; RLM stability T1/2 [8]: metabolized quickly |
| NS(=O)(=O)c1ccc(Cc2c(-c3ccc(F)c(C#CC4(O)CCOC4)c3)nn(-c3nc(C(=O)O)cs3)c2CC2CC2)cc1F (stereo not shown) [Compound 31, 2-(5-(Cyclopropylmethyl)-3-(4-fluoro-3-((3-hydroxytetrahydrofuran-3-yl)ethynyl)phenyl)-4-(3-fluoro-4-sulfamoylbenzyl)-1H-pyrazol-1-yl)thiazole-4-carboxylic Acid] |  | 5 nM | 5940 nM | 2640 nM | 3870 nM | 1740 nM | 815 nM |  |
| Cc1ccc(C#Cc2cccc(-c3nn(-c4nc(C(=O)O)cs4)c(C4CC45CC5)c3Cc3ccc(S(N)(=O)=O)c(F)c3)c2)s1 (stereo not shown) [Compound 87, 2-(4-(3-Fluoro-4-sulfamoylbenzyl)-3-(3-((5-methylthiophen-2-yl)ethynyl)phenyl)-5-(spiro[2.2]pentan-1-yl)-1H-pyrazol-1-yl)-thiazole-4-carboxylic Acid] |  | 122 nM | 485 nM | 526 nM | 459 nM | 469 nM | 175 nM |  |
| Cc1ccc(C#Cc2cccc(-c3nn(-c4nc(C(=O)O)cs4)c(CC4CC4)c3Cc3ccc(S(N)(=O)=O)c(F)c3)c2)s1 [Compound 52, 2-(5-(Cyclopropylmethyl)-4-(3-fluoro-4-sulfamoylbenzyl)-3-(3((5-methylthiophen-2-yl)-ethynyl)phenyl)-1H-pyrazol-1-yl)thiazole4-carboxylic Acid] |  |  |  |  |  |  |  | half-life [10]: > 2 h; half-life [11]: > 2.5 h; PAMPA-BBB permeability [12]: low permeability; IC50 [13]: 7500 nM; IC50 [14]: 14000 nM; metabolite ID (in vitro) [15]: no significant phase I or II metabolites; CYP induction [16]: no induction at 10 μM; Ames [17]: not active; also recorded: negative; clearance at 24 h [18]: 10.4 mL/min/kg; effect on LDH activity in tumors (in words) [9]: significantly reduced |
| NS(=O)(=O)c1ccc(Cc2c(-c3ccc(F)c(C#CC4(F)CCOC4)c3)nn(-c3nc(C(=O)O)cs3)c2CC2CC2)cc1F (stereo not shown) [Compound 30, 2-(5-(Cyclopropylmethyl)-3-(4-fluoro-3-((3-fluorotetrahydrofuran-3-yl)ethynyl)phenyl)-4-(3-fluoro-4-sulfamoylbenzyl)-1H-pyrazol-1-yl)thiazole-4-carboxylic Acid] | significantly diminished | 1 nM | 1060 nM | 1050 nM | 867 nM | 882 nM | 201 nM |  |

Second part, led by results:

| aq solubility at pH 7.4 [7] | Compound | IC50 [1] | IC50 [2] | IC50 [3] | IC50 [4] | IC50 [5] | IC50 [6] | further results |
| --- | --- | --- | --- | --- | --- | --- | --- | --- |
| significantly diminished | Cc1nc(C#Cc2cccc(-c3nn(-c4nc(C(=O)O)cs4)c(CC4CC4)c3Cc3ccc(S(N)(=O)=O)c(F)c3)c2)cs1 [Compound 65, 2-(5-(Cyclopropylmethyl)-4-(3-fluoro-4-sulfamoylbenzyl)-3-(3-((2-methylthiazol-4-yl)ethynyl)phenyl)-1H-pyrazol-1-yl)thiazole-4-carboxylic Acid] |  |  |  |  |  |  |  |
| significantly diminished | Cc1cnc(C#Cc2cc(-c3nn(-c4nc(C(=O)O)cs4)c(CC4CC4)c3Cc3ccc(S(N)(=O)=O)c(F)c3)ccc2F)s1 [Compound 47, 2-(5-(Cyclopropylmethyl)-3-(4-fluoro-3-((5-methylthiazol-2-yl)-ethynyl)phenyl)-4-(3-fluoro-4-sulfamoylbenzyl)-1H-pyrazol-1-yl)-thiazole-4-carboxylic Acid] |  |  |  |  |  |  | clearance at 24 h [18]: 128 mL/min/kg; effect on LDH activity in tumors (in words) [9]: less effects |
| significantly diminished | NS(=O)(=O)c1ccc(Cc2c(-c3ccc(F)c(C#CCN4CCCC4)c3)nn(-c3nc(C(=O)O)cs3)c2CC2CC2)cc1F [Compound 39, 2-(5-(Cyclopropylmethyl)-3-(4-fluoro-3-(3-(pyrrolidin-1-yl)prop-1-yn-1-yl)phenyl)-4-(3-fluoro-4-sulfamoylbenzyl)-1H-pyrazol-1-yl)-thiazole-4-carboxylic Acid] |  |  |  |  |  |  |  |
| significantly diminished | Cc1cnc(C#Cc2cccc(-c3nn(-c4nc(C(=O)O)cs4)c(CCC4CC4)c3Cc3ccc(S(N)(=O)=O)c(F)c3)c2)s1 [Compound 80, 2-(5-(2-Cyclopropylethyl)-4-(3-fluoro-4-sulfamoylbenzyl)-3-(3((5-methylthiazol-2-yl)ethynyl)phenyl)-1H-pyrazol-1-yl)thiazole-4-carboxylic Acid] |  |  |  |  |  |  |  |
